Values of other authors, collected in patent publication US20050096391A1 (priority 2003, published 2005).

Experiments:
[1] = oral
[2] = pH of 7.0
[3] = tested on: low-density lipoprotein (LDL)-cholesterol; settings: compared with atorvastatin, simvastatin, pravastatin

SMILES	solubility in ethanol (ethanol)	solubility in methanol (methanol)	solubility in water (water)	bioavailability [1]	partition coefficient (octanol/water) [2]	reductions in low-density lipoprotein (LDL)-cholesterol [3]
CC(C)c1nc(N(C)S(C)(=O)=O)nc(-c2ccc(F)cc2)c1/C=C/[C@@H](O)C[C@@H](O)CC(=O)[O-].CC(C)c1nc(N(C)S(C)(=O)=O)nc(-c2ccc(F)cc2)c1/C=C/[C@@H](O)C[C@@H](O)CC(=O)[O-].[Ca+2] [Rosuvastatin calcium]	slightly soluble	sparingly soluble	sparingly soluble			
CC(C)c1nc(N(C)S(C)(=O)=O)nc(-c2ccc(F)cc2)c1/C=C/[C@@H](O)C[C@@H](O)CC(=O)O [Rosuvastatin, (E)-7-[4-(4-fluorophenyl)-6 isopropyl-2-[methyl (methyl-sulfonyl)amino]pyrimidin-5-yl](3R,5S)-3,5-dihydroxyhept-6-enoic acid]				approximately 20%	0.13	greater reductions in low-density lipoprotein (LDL)-cholesterol than atorvastatin, simvastatin, and pravastatin
